The values below are quoted from earlier work in patent US20020098221A1, “Oil-in-water emulsion formulation of insecticides” (priority 2000, published 2002).

The conditions of the series: at room temperature.

As for `COCC(C)O` (centres unmarked) [1-methoxy-2-propanol], the solubility in water is recorded as 100%.

Regarding `OCc1ccccc1` [benzyl alcohol], the solubility in water is 4%.

For the compound `O=C1CCCCC1` [cyclohexanone], the solubility in water was 8%.

Regarding `C[S+](C)[O-]` [dimethylsulfoxide], the solubility in water is 100%.

For the compound `CN1CCCC1=O` [n-methylpyrrolidone], the solubility in water is reported as 100%.
